Data: ChEMBL document CHEMBL1201862, “PubChem BioAssay data set” (2004)
Active and inactive are the calls of the source.

Assays:
Cytochrome P450 2C9 = Cytochrome P450 2C9 (Homo sapiens, UniProt P11712)
Cytochrome P450 2C19 = Cytochrome P450 2C19 (Homo sapiens, UniProt P33261); assay: Cytochrome panel assay with activity outcomes. Panel member name: p450-cyp2c19 Compounds with AC50 equal or less than 10 uM are considered active; type: functional
BJ [1] = assay: BJ-TERT fibroblast viability loss – cell-based, RAS-independent, luminescence, dose response (AID 1933); type: functional; settings: Homo sapiens
H4 = assay: Luminescence Cell-Based Dose Response HTS to Identify Activators of 5'UTR Stem-Loop Driven Prion Protein mRNA Translation in H4 Neuroglioblastoma Cells. [Related pubchem assays: 1829 (Project Summary), 1814 (Primary HTS)]; type: functional; settings: Homo sapiens
[2] = DRD fibroblast viability loss – cell-based, non-viral oncogenic, luminescence, dose response (AID 1934); type: functional; settings: Homo sapiens
BJ [3] = assay: cells; type: functional, cell-based; settings: Homo sapiens
BJ [4] = assay: BJ-TERT-LT-ST fibroblast viability loss – cell-based, RAS-independent, luminescence, dose response (AID 1935); type: functional; settings: Homo sapiens;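 also: BJ fibroblasts immortalized with TERT plus LT and ST oncogenes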
[5] = Luminescence Cell-Based Dose Response HTS to Identify Activators of Luciferase Translation or Activity in H4 […] Cells. [Related pubchem assays: 1829 (Project Summary), 1814 (Primary HTS)]; type: functional
[6] = Luminescence Cell-Based Dose Confirmation HTS to Identify Activators of 5'UTR Stem-Loop Driven Alpha-Synuclein mRNA Translation in H4 Neuroglioblastoma Cells. [Related pubchem assays: 1829 (Project Summary), 1814 (Primary HTS)]; type: functional
Protein skinhead-1 = molecular target: T1, Protein skinhead-1 (Caenorhabditis elegans, UniProt P34707); type: functional
T1 sequence (P34707 whole entry): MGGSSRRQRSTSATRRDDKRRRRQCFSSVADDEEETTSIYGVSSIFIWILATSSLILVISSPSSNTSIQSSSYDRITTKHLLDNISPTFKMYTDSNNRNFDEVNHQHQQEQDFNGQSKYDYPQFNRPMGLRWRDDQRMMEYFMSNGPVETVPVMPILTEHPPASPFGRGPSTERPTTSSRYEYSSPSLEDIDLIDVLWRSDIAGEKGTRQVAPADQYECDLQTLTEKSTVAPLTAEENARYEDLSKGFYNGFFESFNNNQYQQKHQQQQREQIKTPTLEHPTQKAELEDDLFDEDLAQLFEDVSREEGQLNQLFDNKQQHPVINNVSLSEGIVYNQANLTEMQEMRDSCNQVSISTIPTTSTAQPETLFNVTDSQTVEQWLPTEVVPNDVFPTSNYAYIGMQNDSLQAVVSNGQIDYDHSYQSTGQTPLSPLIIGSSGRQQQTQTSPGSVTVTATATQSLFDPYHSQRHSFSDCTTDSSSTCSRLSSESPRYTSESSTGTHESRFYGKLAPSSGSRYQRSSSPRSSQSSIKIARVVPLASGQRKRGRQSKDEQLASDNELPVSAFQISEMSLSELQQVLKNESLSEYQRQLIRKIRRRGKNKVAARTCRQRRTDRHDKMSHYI

[7] = molecular target: T2, Microphthalmia-associated transcription factor (Homo sapiens, UniProt O75030); assay: reducers of TRPM1 reporter luminescence, concentration series – cell-based, SK-MEL-5, cherry-picked, set 3, MITF inhibitor project, dose response (AID 493073); type: functional;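 also: SK-MEL-5 melanoma cells with luciferase driven by the MITF target TRPM1 promoter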
T2 sequence (O75030 whole entry): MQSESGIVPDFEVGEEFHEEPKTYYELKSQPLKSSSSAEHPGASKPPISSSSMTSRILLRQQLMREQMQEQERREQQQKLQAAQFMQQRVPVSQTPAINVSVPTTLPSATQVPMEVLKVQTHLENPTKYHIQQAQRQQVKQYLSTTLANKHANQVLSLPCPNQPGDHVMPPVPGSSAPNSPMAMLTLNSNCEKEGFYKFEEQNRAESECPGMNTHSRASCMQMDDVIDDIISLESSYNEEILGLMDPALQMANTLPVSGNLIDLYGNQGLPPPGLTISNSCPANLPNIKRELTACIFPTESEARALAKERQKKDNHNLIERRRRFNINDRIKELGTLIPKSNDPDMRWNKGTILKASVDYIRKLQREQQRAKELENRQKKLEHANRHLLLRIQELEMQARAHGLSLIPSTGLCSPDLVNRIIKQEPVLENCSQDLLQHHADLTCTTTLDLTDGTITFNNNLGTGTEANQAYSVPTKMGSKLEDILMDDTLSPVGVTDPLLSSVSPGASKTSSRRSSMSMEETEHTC

Cytochrome P450 3A4 = Cytochrome P450 3A4 (Homo sapiens, UniProt P08684);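 also: CYP3A4 tested as one member of a cytochrome P450 panel screen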
Chain of Cytochrome P450 3A4 (P08684 whole entry): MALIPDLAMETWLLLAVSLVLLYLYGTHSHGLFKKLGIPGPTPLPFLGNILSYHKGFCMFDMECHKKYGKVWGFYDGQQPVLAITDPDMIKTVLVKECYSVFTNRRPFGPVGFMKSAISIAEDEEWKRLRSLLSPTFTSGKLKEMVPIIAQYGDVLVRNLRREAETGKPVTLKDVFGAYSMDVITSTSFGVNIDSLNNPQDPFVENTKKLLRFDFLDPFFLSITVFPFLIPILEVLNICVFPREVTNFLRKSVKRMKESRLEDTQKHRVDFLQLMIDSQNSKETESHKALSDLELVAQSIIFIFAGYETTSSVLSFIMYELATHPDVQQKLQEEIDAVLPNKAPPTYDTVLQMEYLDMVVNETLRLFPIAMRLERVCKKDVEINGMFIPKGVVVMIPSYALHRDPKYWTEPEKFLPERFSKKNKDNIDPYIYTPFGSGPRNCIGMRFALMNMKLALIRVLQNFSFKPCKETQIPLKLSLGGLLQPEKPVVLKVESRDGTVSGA

[8] = Luminescence Cell-Based Dose Retest to Confirm Inhibitors of Cancer Stem Cells. [Related pubchem assays (depositor defined):AID2717, AID2721]; type: functional; settings: Homo sapiens
Cytochrome P450 1A2 = molecular target: T3, Cytochrome P450 1A2 (Homo sapiens, UniProt P05177);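 also: PubChem cytochrome P450 panel assay, CYP1A2 panel member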
T3 sequence (P05177 whole entry): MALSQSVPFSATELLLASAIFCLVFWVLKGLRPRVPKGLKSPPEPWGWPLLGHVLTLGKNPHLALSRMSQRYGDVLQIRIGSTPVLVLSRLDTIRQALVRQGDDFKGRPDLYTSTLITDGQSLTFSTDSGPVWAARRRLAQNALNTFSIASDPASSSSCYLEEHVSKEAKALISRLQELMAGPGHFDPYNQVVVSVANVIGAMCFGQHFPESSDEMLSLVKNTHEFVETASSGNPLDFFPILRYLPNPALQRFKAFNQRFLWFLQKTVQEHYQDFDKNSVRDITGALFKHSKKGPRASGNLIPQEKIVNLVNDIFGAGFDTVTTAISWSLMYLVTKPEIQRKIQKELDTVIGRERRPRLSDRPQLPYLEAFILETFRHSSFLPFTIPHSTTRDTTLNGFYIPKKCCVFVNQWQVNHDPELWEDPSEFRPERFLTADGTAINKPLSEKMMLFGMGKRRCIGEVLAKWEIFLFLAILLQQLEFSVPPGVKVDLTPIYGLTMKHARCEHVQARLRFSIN

[9] = molecular target: T4, Nucleotide-binding oligomerization domain-containing protein 1 (Homo sapiens, UniProt Q9Y239); assay: blockers of NOD1 pathway activity – revised, SAR follow-up (AID 2333); type: functional
T4 sequence (Q9Y239 whole entry): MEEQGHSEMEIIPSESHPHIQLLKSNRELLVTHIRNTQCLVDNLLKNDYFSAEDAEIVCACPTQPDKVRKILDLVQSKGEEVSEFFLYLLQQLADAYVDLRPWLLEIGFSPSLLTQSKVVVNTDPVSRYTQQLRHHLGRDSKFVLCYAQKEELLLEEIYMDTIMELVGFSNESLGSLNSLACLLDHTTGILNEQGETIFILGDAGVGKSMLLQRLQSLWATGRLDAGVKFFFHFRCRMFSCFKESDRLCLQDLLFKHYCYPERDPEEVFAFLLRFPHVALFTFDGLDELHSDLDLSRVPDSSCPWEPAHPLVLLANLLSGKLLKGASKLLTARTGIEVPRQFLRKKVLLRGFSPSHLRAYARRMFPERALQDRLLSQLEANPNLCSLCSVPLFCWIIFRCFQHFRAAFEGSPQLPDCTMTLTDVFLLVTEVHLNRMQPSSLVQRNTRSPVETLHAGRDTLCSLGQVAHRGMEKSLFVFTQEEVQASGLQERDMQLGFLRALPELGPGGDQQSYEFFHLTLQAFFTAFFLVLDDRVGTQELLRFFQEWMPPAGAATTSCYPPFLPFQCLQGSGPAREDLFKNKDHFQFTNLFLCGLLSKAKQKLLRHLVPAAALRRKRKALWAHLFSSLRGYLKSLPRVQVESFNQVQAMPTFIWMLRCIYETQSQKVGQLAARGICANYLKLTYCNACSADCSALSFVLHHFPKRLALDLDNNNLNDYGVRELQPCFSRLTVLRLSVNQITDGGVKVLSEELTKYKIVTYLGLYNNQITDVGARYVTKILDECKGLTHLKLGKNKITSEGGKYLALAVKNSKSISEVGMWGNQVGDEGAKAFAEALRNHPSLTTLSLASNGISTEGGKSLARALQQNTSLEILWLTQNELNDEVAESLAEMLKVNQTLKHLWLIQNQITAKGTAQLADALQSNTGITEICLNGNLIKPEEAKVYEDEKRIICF

Tumor necrosis factor = Tumor necrosis factor (Homo sapiens, UniProt P01375); assay: analog potency on TNFa NF-kB signaling – cell-based, revised, SAR follow-up (AID 2337); type: functional
Chain of Tumor necrosis factor (P01375 whole entry): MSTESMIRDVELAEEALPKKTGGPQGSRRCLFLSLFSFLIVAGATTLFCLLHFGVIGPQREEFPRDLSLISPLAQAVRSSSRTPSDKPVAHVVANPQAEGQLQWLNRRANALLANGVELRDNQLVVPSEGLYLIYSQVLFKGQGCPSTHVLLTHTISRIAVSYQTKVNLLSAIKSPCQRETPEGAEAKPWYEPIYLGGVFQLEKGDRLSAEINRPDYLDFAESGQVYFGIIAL

HEK293 = assay: cells; settings: Homo sapiens;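 also: cells exposed to compound for 14 hours overnight before viability readout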
[10] = molecular target: Luciferin 4-monooxygenase (Photinus pyralis, UniProt P08659); assay: inhibition of purified Photinus pyralis luciferase – biochemical, luminescence, dose response (AID 1891)
Chain of Luciferin 4-monooxygenase (P08659 whole entry): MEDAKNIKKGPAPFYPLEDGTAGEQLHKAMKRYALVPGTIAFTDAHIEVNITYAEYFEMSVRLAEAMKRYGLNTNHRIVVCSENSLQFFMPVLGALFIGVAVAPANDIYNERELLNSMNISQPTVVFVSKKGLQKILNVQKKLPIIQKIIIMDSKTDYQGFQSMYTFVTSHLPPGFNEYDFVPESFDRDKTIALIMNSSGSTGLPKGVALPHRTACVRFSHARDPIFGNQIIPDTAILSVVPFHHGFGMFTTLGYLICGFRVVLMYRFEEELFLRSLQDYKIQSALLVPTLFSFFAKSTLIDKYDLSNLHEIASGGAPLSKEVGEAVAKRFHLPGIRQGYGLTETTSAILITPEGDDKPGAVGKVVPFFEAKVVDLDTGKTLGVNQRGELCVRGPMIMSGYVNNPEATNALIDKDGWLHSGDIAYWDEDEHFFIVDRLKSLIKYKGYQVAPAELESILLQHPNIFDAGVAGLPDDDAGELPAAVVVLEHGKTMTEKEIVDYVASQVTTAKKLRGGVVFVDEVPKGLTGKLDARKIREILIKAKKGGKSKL

Genome polyprotein = Genome polyprotein (dengue virus type 2, UniProt P29990); assay: flavivirus cap methylation enzyme inhibition – biochemical, confirmation dose response, primary screen (AID 588689); type: functional
Chain of Genome polyprotein (P29990 2492-3391 limits assumed): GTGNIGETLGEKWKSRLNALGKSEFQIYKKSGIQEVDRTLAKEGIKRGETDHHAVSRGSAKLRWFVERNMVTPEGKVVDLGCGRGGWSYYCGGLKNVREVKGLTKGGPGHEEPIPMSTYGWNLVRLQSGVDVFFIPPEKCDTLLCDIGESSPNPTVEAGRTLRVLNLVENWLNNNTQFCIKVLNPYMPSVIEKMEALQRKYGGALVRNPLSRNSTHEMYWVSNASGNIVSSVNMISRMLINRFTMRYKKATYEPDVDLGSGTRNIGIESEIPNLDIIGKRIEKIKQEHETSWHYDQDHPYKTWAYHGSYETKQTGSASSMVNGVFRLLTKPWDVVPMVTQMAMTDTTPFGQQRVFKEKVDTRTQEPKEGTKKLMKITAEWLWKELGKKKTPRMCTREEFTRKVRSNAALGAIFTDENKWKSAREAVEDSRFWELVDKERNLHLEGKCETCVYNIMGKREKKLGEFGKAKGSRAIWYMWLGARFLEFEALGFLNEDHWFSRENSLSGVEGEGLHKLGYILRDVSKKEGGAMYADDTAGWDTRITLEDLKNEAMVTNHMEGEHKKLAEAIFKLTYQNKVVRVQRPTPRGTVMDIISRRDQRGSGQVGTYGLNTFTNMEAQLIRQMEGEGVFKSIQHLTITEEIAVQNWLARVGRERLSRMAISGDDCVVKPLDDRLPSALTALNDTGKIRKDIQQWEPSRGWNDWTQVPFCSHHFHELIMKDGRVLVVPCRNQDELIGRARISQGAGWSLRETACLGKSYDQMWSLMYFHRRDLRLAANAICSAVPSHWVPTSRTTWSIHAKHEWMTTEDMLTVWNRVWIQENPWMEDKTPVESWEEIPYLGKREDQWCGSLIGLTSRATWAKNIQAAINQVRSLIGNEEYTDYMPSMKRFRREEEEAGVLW

[11] = Luminescence Cell-Based Dose Confirmation HTS to Identify Inhibitors of Platelet Dense Granule Release. [Related pubchem assays: 1663 (Primary HTS), 1678 (Summary of Project)]; type: functional
[12] = molecular target: T5, Heat shock factor protein 1 (Mus musculus, UniProt P38532); assay: enhancement of HSF1-driven luciferase signal – cell-based, NIH3T3, luminescence, dose retest, confirmation (AID 435004); type: functional;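 also: stress induced by proteasome inhibitor MG132 added 30 min after compound; luciferase reporter driven by HSF1 response element in NIH3T3 cells; actives raise luminescence as potentiators of the MG132 stress response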
T5 sequence (P38532 whole entry): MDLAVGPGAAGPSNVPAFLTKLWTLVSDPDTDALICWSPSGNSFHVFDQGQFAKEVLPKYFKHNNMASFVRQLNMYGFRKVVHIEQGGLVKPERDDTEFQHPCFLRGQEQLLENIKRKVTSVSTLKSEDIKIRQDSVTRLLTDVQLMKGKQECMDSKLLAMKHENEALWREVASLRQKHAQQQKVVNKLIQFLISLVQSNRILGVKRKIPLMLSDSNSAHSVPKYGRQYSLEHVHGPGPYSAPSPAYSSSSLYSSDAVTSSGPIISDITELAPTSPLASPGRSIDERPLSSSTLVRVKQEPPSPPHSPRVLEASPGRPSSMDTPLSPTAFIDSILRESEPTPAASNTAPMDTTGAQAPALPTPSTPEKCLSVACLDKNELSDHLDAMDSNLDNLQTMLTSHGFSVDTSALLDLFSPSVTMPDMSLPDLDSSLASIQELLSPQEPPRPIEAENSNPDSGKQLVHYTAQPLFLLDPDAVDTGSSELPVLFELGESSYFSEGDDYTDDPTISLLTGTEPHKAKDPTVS

Chain of Cytochrome P450 2C9 (P11712 whole entry): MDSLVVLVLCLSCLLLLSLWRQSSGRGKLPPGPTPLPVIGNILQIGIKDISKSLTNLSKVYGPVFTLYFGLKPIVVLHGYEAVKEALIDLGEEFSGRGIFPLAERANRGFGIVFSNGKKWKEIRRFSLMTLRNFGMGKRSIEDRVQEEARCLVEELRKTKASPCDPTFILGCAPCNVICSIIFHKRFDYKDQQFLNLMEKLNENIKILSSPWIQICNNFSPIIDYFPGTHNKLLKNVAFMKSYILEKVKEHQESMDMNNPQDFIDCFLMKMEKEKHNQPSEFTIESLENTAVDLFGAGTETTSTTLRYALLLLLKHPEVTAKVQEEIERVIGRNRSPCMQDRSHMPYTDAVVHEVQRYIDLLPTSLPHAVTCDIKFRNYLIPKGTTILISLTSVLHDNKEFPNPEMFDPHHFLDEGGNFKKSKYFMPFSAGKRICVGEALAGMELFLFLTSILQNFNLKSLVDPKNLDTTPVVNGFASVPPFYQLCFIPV
Chain of Cytochrome P450 2C19 (P33261 whole entry): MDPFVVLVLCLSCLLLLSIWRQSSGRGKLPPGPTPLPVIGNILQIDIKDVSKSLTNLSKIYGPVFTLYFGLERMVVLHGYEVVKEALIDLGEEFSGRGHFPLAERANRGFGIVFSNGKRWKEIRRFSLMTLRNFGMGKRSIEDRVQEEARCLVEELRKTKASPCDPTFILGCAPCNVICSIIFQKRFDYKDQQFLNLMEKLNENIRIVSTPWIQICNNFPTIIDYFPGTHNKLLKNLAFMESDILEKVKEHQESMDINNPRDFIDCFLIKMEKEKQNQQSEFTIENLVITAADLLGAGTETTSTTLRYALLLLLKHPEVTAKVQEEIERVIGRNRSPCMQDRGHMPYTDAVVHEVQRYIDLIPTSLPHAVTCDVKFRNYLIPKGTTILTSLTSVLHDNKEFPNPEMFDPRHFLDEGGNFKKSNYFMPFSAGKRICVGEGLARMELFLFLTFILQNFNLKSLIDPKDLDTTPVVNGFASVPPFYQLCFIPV

For `Cc1cc(C(=O)O)c(O)nc1C`, the AC50 (Cytochrome P450 2C9) was “inconclusive” and the AC50 (Cytochrome P450 2C19) was “inconclusive”.
With `COc1cc2c(cc1OC)C(c1ccccc1)N(C(=O)CCl)CC2` (stereo not given) the EC50 (BJ [1]) was 5.08 µM (inconclusive), the EC50 (H4) was > 120 µM (not active) and the EC50 [2] was 8.09 µM (active). The EC50 (BJ [3]) was 7.81 µM (inconclusive), the EC50 (BJ [4]) was 4.74 µM (active) and the EC50 [5] was > 120 µM (not active). For the same compound, the EC50 [6] was > 120 µM (not active), the IC50 (Protein skinhead-1) was > 100 µM (inactive) and the AC50 [7] was 5.36 µM (active).
In the case of `COc1cccc(/C=N/NC(=O)CSc2nnc(C)n2-c2ccccc2)c1O`, the AC50 (Cytochrome P450 3A4) is reported as 4.47 µM (inconclusive), the AC50 [8] is reported as 11.9 µM (active) and the AC50 (Cytochrome P450 1A2) is reported as 35.5 µM (inconclusive). For the same compound, the AC50 (Cytochrome P450 2C9) was “inconclusive” and the AC50 (Cytochrome P450 2C19; read-out: AC50) was 31.6 µM (inconclusive).
With `COc1ccc(OC)c2nc(O)c(CCNC(=O)C3CCCCC3)cc12` the AC50 (Cytochrome P450 1A2) was 20 µM (inconclusive) and the AC50 (Cytochrome P450 2C9) was “inconclusive”.
In the case of `CSc1ccc(NC(=O)c2ccc(CN3CCc4ccccc43)cc2)cc1`, the IC50 [9] is reported as > 20 µM (inactive), the IC50 (Tumor necrosis factor) is reported as > 20 µM (inactive) and the IC50 (HEK293) is reported as > 20 µM (inactive).
In the case of `NS(=O)(=O)c1cc(Cl)c(Cl)c(S(N)(=O)=O)c1` [DICHLORPHENAMIDE], the AC50 (Cytochrome P450 2C9) is reported as “inconclusive”.
In the case of `CC1(C)CC(=O)C=C(NC2=CC3OC(c4ccccc4)OCC3OC2=O)C1` (stereo not given), the EC50 [10] is reported as > 112 µM (not active), the IC50 (Genome polyprotein) is reported as > 100 µM (active) and the EC50 [11] is reported as 14.8 µM (active). For the same compound, the EC50 [12] was 6.65 µM (inconclusive) and the AC50 [7] was 7.71 µM (active).
With `N#Cc1cccc(NC(=O)CSc2nc3scc(-c4ccccc4)c3c(=O)[nH]2)c1` the IC50 [9] was > 20 µM (inactive), the IC50 (Tumor necrosis factor) was > 20 µM (inactive) and the IC50 (HEK293) was > 20 µM (inactive).
